Experimental data published in patent US12552800B2, “Compounds for diagnosis” (AC IMMUNE SA, priority 2020, dated 2026).

Molecular target: T1, PD brain-derived a-syn aggregates (Homo sapiens, UniProt P37840)
T1 construct: from tissue; host or cells: human PD donor brain, sarkosyl-insoluble 100,000 x g pellet
Test: Micro-radiobinding competition assay against Example-1 [^3H-1] (Table 8)
Format: binding
Details: for Competition at 100 nM (%): 100 nM non-radiolabelled example compound vs Example-1 [^3H-1] ligand; for Competition at 100 nM (%) / Competition at 1 μM (%): human PD brain-derived a-syn aggregates; for Competition at 1 μM (%): 1 μM non-radiolabelled example compound vs Example-1 [^3H-1] ligand
Protocol: PD brain-derived a-syn aggregates were spotted onto microarray slides. The slides were incubated with the Example-1 [^3H-1] at 6 nM or 20 nM and the example compounds (non-radiolabelled) at 1 μM and 100 nM. In some cases, the non-radiolabelled example compounds were further assessed for a range of different concentrations, varying from 0.05 nM to 2 μM. After incubation, slides were washed and scanned by a real-time autoradiography system (BeaQuant, ai4R). Quantification of the signal was performed by using the Beamage image analysis software (ai4R). […] All measurements were performed with at least two technical replicates. For compounds tested in more than one experiment, the mean of the replicates or K; values in independent experiments is reported.
Results: Example compounds were assessed for their potency to compete with the binding of Example-1 [^3H-1] ligand to PD patient brain-derived a-syn aggregates. Results of the micro-radiobinding competition assay for the example compounds tested are shown in Table 8 as: % competition at 1 μM and 100 nM.

| SMILES | Competition at 100 nM (%) | Competition at 1 μM (%) | Ki (mean of Ki values in independent experiments using PD brain-derived homogenates from two different donors) [nM] |
| --- | --- | --- | --- |
| COc1ccc(N2Cc3nn(-c4ccc(N5CC[C@@H](F)C5)nc4)cc3C2=O)cn1 [Example 8] | 67 | 91 | – |
| Cc1ncccc1N1Cc2nn(-c3ccc(N4CC[C@@H](F)C4)nc3)cc2C1=O [Example 12] | – | 25 | – |
| Cc1ncccc1N1Cc2nn(-c3ccc(N4CC[C@H](F)C4)nc3)cc2C1=O [Example 13] | 4 | 31 | – |
| O=C1c2cn(-c3ccc(N4CC[C@@H](F)C4)nc3)nc2CN1c1cncnc1 [Example 14] | 42 | 77 | – |
| O=C1c2cn(-c3ccc(N4CC[C@@H](F)C4)nc3)nc2CN1c1ncccn1 [Example 15] | 61 | 91 | – |
| O=C1c2cn(-c3ccc(N4CC[C@H](F)C4)nc3)nc2CN1c1cncnc1 [Example 16] | 32 | 70 | – |
| O=C1c2cn(-c3ccc(N4CC[C@H](F)C4)nc3)nc2CN1c1ccccc1 [Example 20] | 48 | 90 | – |
| N#Cc1ccc(N2Cc3nn(-c4ccc(N5CC[C@H](F)C5)nc4)cc3C2=O)cc1N [Example 21] | – | 84 | – |
| N#Cc1cc(N2Cc3nn(-c4ccc(N5CC[C@H](F)C5)nc4)cc3C2=O)ccc1N [Example 22] | – | 72 | – |
| N#Cc1cc(N2Cc3nn(-c4ccc(N5CC[C@@H](F)C5)nc4)cc3C2=O)ccc1N [Example 23] | – | 81 | – |
| N#Cc1ccc(N2Cc3nn(-c4ccc(N5CC[C@@H](F)C5)nc4)cc3C2=O)cc1N [Example 24] | – | 97 | – |
| N#Cc1ccc(N2Cc3nn(-c4ccc(N5CC[C@H](F)C5)nc4)cc3C2=O)nc1 [Example 31] | 86 | – | – |
| Cc1ccccc1N1Cc2nn(-c3ccc(N4CC[C@H](F)C4)nc3)cc2C1=O [Example 32] | 16 | 25 | – |
| N#Cc1ccc(N2Cc3nn(-c4ccc(N5CC[C@@H](F)C5)nc4)cc3C2=O)nc1 [Example 33] | 75 | – | – |
| O=C1c2cn(-c3ccc(N4CCCC4)nc3)nc2CN1c1cccnc1F [Example 39] | 43 | 66 | – |

More lines, now with the values ahead:

| Competition at 100 nM (%) | Competition at 1 μM (%) | Ki (mean of Ki values in independent experiments using PD brain-derived homogenates from two different donors) [nM] | SMILES |
| --- | --- | --- | --- |
| 69 | 90 | – | COc1ccc(N2Cc3nn(-c4ccc(N5CC[C@H](F)C5)nc4)cc3C2=O)cn1 [Example 9] |
| 58 | 90 | 61 | Cc1ccc(N2Cc3nn(-c4ccc(N5CC[C@@H](F)C5)nc4)cc3C2=O)cn1 [Example 10] |
| 50 | 98 | – | Cc1ccc(N2Cc3nn(-c4ccc(N5CC[C@H](F)C5)nc4)cc3C2=O)cn1 [Example 11] |
| 89 | 99 | – | COc1ccc(N2Cc3nn(-c4ccc(N5CC[C@H](F)C5)nc4)cc3C2=O)nc1 [Example 28] |
| 91 | – | – | N#Cc1ccc(N2Cc3nn(-c4ccc(N5CC[C@H](F)C5)nc4)cc3C2=O)cn1 [Example 29] |
| 80 | 95 | – | COc1ccc(N2Cc3nn(-c4ccc(N5CC[C@H](F)C5)nc4)cc3C2=O)cc1 [Example 30] |
| 80 | 89 | – | COc1cccc(N2Cc3nn(-c4ccc(N5CC[C@@H](F)C5)nc4)cc3C2=O)c1 [Example 34] |
| 73 | – | – | Cc1ccc(N2Cc3nn(-c4ccc(N5CC[C@H](F)C5)nc4)cc3C2=O)cc1 [Example 35] |
| 74 | 91 | – | COc1cccc(N2Cc3nn(-c4ccc(N5CC[C@H](F)C5)nc4)cc3C2=O)c1 [Example 36] |
| 37 | – | – | COc1ccccc1N1Cc2nn(-c3ccc(N4CC[C@H](F)C4)nc3)cc2C1=O [Example 37] |
| 70 | – | – | Cc1cccc(N2Cc3nn(-c4ccc(N5CC[C@H](F)C5)nc4)cc3C2=O)c1 [Example 38] |
